Reference: US20250092065A1, “2-(INDAZOL-5-YL)-6-(PIPERIDIN-4-YL)-1,7-NAPHTHYRIDINE DERIVATIVES AND RELATED COMPOUNDS AS MODULATORS FOR SPLICING NUCLEIC ACIDS AND FOR THE TREATMENT OF PROLIFERATIVE DISEASES” (REMIX THERAPEUTICS INC., priority 2022, published 2025)
pIC50: −log10 of the molar value.

Key:
Target C [1] = assay: RT-qPCR canonical junction panel assay, Target C mRNA; type: cell-based; conditions: Table 4, read-out: Target C IC50 (decrease in CJ mRNA levels)
How it was run: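 IC50 is the concentration giving 50% CJ decrease, from a 4-parameter logistic fit of percent response; response derived from ΔΔCt against housekeeper and DMSO over a fixed ΔCt window, with canonical exon-junction qPCR in compound-treated K562 or A673 cells.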

Target C [2] = assay: HiBiT protein abundance assay, Target C (K562 HiBiT knock-in); type: cell-based, human; conditions: HiBiT knock-in K562 cells, 24 hours, top dose 10 μM
How it was run: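 K562 HiBiT knock-in cells (10000/well) were treated 24 h at 37° C with a 10-point 3-fold dilution series (top 10 μM final, ≤0.25% DMSO). HiBiT luminescence was read after lytic LgBiT detection. Percent response used unmodified K562 and DMSO-treated knock-in controls, and IC50 came from a four-parameter fit at 50% of untreated.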

Row | pIC50 (Target C [1]) | pIC50 (Target C [2]) | SMILES
1 | > 7.00 | > 7.00 | Cc1nc2c(C)c(O)c(-c3ccc4nc(N5CC[C@H](NC6CCC6)C5)ccc4n3)cc2o1 [Compound 237]
2 | > 7.00 | > 7.00 | Cc1c(O)c(-c2ccc3nc(N4CC[C@H](NC(C)(C)C)C4)ccc3n2)cc2cn(C)nc12 [Compound 250]
3 | < 5.00 | 6.00 to 7.00 | COc1c(-c2ccc3nc(N4CCC(NC(C)(C)C)C4)ccc3n2)cc2c[nH]nc2c1C (centres unmarked) [Compound 251]
4 | 6.00 to 7.00 | > 7.00 | Cc1c(O)c(-c2ccc3nc(N4CCC(NC5CCC5)C4)ccc3n2)cc2cn(C)nc12 (centres unmarked) [Compound 288, 5-{6-[3-(cyclobutylamino)pyrrolidin-1-yl]-1,5-naphthyridin-2-yl}-2,7-dimethylindazol-6-ol]
5 | > 7.00 | > 7.00 | Cc1nc2c(F)c(O)c(-c3ccc4nc(N5CCC(NC6CCC6)C5)ccc4n3)cc2o1 (centres unmarked) [Compound 293, 6-{6-[3-(cyclobutylamino)pyrrolidin-1-yl]-1,5-naphthyridin-2-yl}-4-fluoro-2-methyl-1,3-benzoxazol-5-ol]
6 | < 5.00 | 5.00 to 6.00 | Cn1cc2cc(-c3ccc4nc(N5CCC(NC67CC(C6)C7)C5)ccc4n3)c(O)cc2n1 (centres unmarked) [Compound 297, 5-[6-(3-{bicyclo[1.1.1]pentan-1-ylamino}pyrrolidin-1-yl)-1,5-naphthyridin-2-yl]-2-methylindazol-6-ol]
7 | 6.00 to 7.00 | > 7.00 | Cn1cc2nc(-c3ccc4nc(N5CCC(NC(C)(C)C)C5)ccc4n3)c(O)cc2n1 (centres unmarked) [Compound 298, 5-{6-[3-(tert-butylamino)pyrrolidin-1-yl]-1,5-naphthyridin-2-yl}-2-methylpyrazolo[4,3-b]pyridin-6-ol]
8 | 5.00 to 6.00 | 6.00 to 7.00 | Cn1cc2cc(-c3ccc4nc(N5CC[C@H](N[C@H]6C[C@@H](F)C6)C5)ccc4n3)c(O)cc2n1 [Compound 299, 2-methyl-5-{6-[(3S)-3-{[(1s,3s)-3-fluorocyclobutyl]amino}pyrrolidin-1-yl]-1,5-naphthyridin-2-yl}indazol-6-ol]
9 | 5.00 to 6.00 | 6.00 to 7.00 | Cc1c(O)c(-c2ccc3nc(N4CCC(NC5COC5)C4)ccc3n2)cc2cn(C)nc12 (centres unmarked) [Compound 302, 2,7-dimethyl-5-{6-[3-(oxetan-3-ylamino)pyrrolidin-1-yl]-1,5-naphthyridin-2-yl}Indazol-6-ol]
10 | > 7.00 | > 7.00 | Cc1nc2c(C)c(O)c(-c3ccc4nc(N5CCC(NC6(C)CC6)C5)ccc4n3)cc2o1 (centres unmarked) [Compound 309, 2,4-dimethyl-6-(6-{3-[(1-methylcyclopropyl)amino]pyrrolidin-1-yl}-1,5-naphthyridin-2-yl)-1,3-benzoxazol-5-ol]
11 | > 7.00 | > 7.00 | Cc1nc2c(C)c(O)c(-c3ccc4nc(N5CCC(NC(C)C)C5)ccc4n3)cc2o1 (centres unmarked) [Compound 312, 6-{6-[3-(isopropylamino)pyrrolidin-1-yl]-1,5-naphthyridin-2-yl}-2,4-dimethyl-1,3-benzoxazol-5-ol]
12 | > 7.00 | > 7.00 | Cn1cc2cc(-c3ccc4nc(N5CCC(NC6CCC6)C5)ccc4n3)c(O)c(F)c2n1 (centres unmarked) [Compound 315, 5-{6-[3-(cyclobutylamino)pyrrolidin-1-yl]-1,5-naphthyridin-2-yl}-7-fluoro-2-methylindazol-6-ol]
13 | > 7.00 | > 7.00 | Cc1c(O)c(-c2ccc3nc(N4CCC(NC(C)C)C4)ccc3n2)cc2cn(C)nc12 (centres unmarked) [Compound 318, 5-{6-[3-(isopropylamino)pyrrolidin-1-yl]-1,5-naphthyridin-2-yl}-2,7-dimethylindazol-6-ol]
14 | > 7.00 | > 7.00 | Cc1nc2c(F)c(O)c(-c3ccc4nc(N5CCC(NC6(C)CC6)C5)ccc4n3)cc2o1 (centres unmarked) [Compound 325, 4-fluoro-2-methyl-6-(6-{3-[(1-methylcyclopropyl)amino]pyrrolidin-1-yl}-1,5-naphthyridin-2-yl)-1,3-benzoxazol-5-ol]
15 | 6.00 to 7.00 | 6.00 to 7.00 | CN[C@@H]1CCN(c2ccc3nc(-c4cc(F)c5nc(C)cn5c4)ncc3n2)C1 [Compound 331, (3R)-1-(2-{8-fluoro-2-methylimidazo[1,2-a]pyridin-6-yl}pyrido[3,2-d]pyrimidin-6-yl)-N-methylpyrrolidin-3-amine]
16 | 6.00 to 7.00 | 6.00 to 7.00 | COCc1nc2cc(O)c(-c3ccc4nc(N5CCC(NC(C)(C)C)C5)ccc4n3)cc2o1 (centres unmarked) [Compound 334, 6-{6-[3-(tert-butylamino)pyrrolidin-1-yl]-1,5-naphthyridin-2-yl}-2-(methoxymethyl)-1,3-benzoxazol-5-ol]
17 | 6.00 to 7.00 | > 7.00 | CC(C)(C)NC1CCN(c2ccc3nc(-c4cc5oc(CO)nc5cc4O)ccc3n2)C1 (centres unmarked) [Compound 336, 6-{6-[3-(tert-butylamino)pyrrolidin-1-yl]-1,5-naphthyridin-2-yl}-2-(hydroxymethyl)-1,3-benzoxazol-5-ol]

More lines, now with the values behind:

Row | SMILES | pIC50 (Target C [1]) | pIC50 (Target C [2])
18 | Cc1cc(-c2ccc3nc(N4CCC(NC(C)(C)C)C4)ccc3n2)nc2cn(C)nc12 (centres unmarked) [Compound 248] | 5.00 to 6.00 | 6.00 to 7.00
19 | Cc1c(O)c(-c2ccc3nc(N4CC[C@@H](NC(C)(C)C)C4)ccc3n2)cc2cn(C)nc12 [Compound 249] | > 7.00 | > 7.00
20 | Cc1cn2nc(-c3ccc4nc(N5CCC(NC6CC6)C5)ccc4n3)c(O)c2c(C)n1 (centres unmarked) [Compound 252] | 6.00 to 7.00 | 6.00 to 7.00
21 | Cc1c(O)c(-c2ccc3nc(N4CCC(NCC5CC5)C4)ccc3n2)cc2cn(C)nc12 (centres unmarked) [Compound 284, 5-(6-{3-[(cyclopropylmethyl)amino]pyrrolidin-1-yl}-1,5-naphthyridin-2-yl)-2,7-dimethylindazol-6-ol] | 6.00 to 7.00 | > 7.00
22 | Cc1c(O)c(-c2ccc3nc(N4CC[C@H](NC(C)C)C4)ccc3n2)cc2cn(C)nc12 [Compound 320] | > 7.00 | > 7.00
23 | Cc1nc2c(F)c(O)c(-c3ccc4nc(N5CCC(NC(C)C)C5)ccc4n3)cc2o1 (centres unmarked) [Compound 328, 4-fluoro-6-{6-[3-(isopropylamino)pyrrolidin-1-yl]-1,5-naphthyridin-2-yl}-2-methyl-1,3-benzoxazol-5-ol] | > 7.00 | > 7.00
24 | CN[C@H]1CCN(c2ccc3nc(-c4cc(F)c5nc(C)cn5c4)ncc3n2)C1 [Compound 332, (S)-1-(2-(8-fluoro-2-methylimidazo[1,2-a]pyridin-6-yl)pyrido[3,2-d]pyrimidin-6-yl)-N-methylpyrrolidin-3-amine] | 6.00 to 7.00 | 6.00 to 7.00
25 | CC(C)(C)NC1CCN(c2ccc3nc(-c4cc5oc(C6CC6)nc5cc4O)ccc3n2)C1 (centres unmarked) [Compound 333, 6-{6-[3-(tert-butylamino)pyrrolidin-1-yl]-1,5-naphthyridin-2-yl}-2-cyclopropyl-1,3-benzoxazol-5-ol] | 6.00 to 7.00 | 6.00 to 7.00
26 | COc1cc2nc(C3COC3)oc2cc1-c1ccc2nc(N3CCC(NC(C)(C)C)C3)ccc2n1 (centres unmarked) [Compound 335] | 5.00 to 6.00 | 5.00 to 6.00
27 | CNC1CCN(c2ccc3nc(-c4cc5cn(C)nc5c(C)c4O)ncc3n2)C1 (centres unmarked) [Compound 337, 2,7-dimethyl-5-{6-[3-(methylamino)pyrrolidin-1-yl]pyrido[3,2-d]pyrimidin-2-yl}indazol-6-ol] | < 5.00 | 6.00 to 7.00
28 | Cc1c(O)c(-c2ncc3nc(N4CCNCC4)ccc3n2)cc2cn(C)nc12 [Compound 338, 2,7-dimethyl-5-[6-(piperazin-1-yl)pyrido[3,2-d]pyrimidin-2-yl]indazol-6-ol] | 5.00 to 6.00 | 6.00 to 7.00
